What is called IC50 is the midpoint of a concentration-inhibition curve.

Molecules are shown by their SMILES.

This is an account of results in patent US5869490A, “Azaheterocyclymethyl derivatives of 2,3,8,9-tetrahydro-7h-1,4-dioxino (2,3-e) indol-8-one” (American Home Products Corporation, priority 1997, dated 1999).

In one assay the target is T1, dopamine D2 receptor (Rattus norvegicus, UniProt P61169).
T1 construct: homogenized rat striatal brain tissue; from tissue; host or cells: rat striatum homogenate
T1 sequence (P61169 whole entry): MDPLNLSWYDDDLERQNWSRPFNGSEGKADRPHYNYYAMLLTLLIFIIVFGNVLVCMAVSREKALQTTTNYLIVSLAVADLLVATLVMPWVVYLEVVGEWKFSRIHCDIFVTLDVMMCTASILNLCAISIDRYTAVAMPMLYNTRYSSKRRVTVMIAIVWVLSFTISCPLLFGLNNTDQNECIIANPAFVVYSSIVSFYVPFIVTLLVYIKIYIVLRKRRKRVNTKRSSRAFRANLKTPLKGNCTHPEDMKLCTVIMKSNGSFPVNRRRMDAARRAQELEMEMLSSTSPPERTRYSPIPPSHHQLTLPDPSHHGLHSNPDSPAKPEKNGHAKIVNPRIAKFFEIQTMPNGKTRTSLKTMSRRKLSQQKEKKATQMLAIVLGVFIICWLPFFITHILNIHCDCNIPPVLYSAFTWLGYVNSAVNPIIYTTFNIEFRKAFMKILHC
The assay is described as follows: Affinity for the dopamine D2 receptor (3H-quinpirole, rat striatal homogenate). The class given is binding.
Settings: not given
The method, then: Affinity for the dopamine D2 receptor was established by a modification of the standard experimental test procedure of Seemen and Schaus, European Journal of Pharmacology 203: 105-109, 1991, wherein homogenized rat striatal brain tissue is incubated with ^3 H-quinpirole and various concentrations of test compound, filtered and washed and counted in a Betaplate scintillation counter.
Compound `O=C1Cc2c(ccc3c2O[C@@H](CN2CC=C(c4ccccc4)CC2)CO3)N1` [Example 5, 2-(4-Phenyl-3,6-dihydro-2H-pyridin-1-ylmethyl)-2,3,8,9-tetrahydro-7H-1,4-dioxino[2,3-e]indol-8-one] registered an IC50 of 1.2 nM.

Turning to `O=C1Cc2c(ccc3c2O[C@@H](CN2CCC(n4c(=O)[nH]c5ccccc54)CC2)CO3)N1` [Example 4, 2-[4-(2-Oxo-2,3-dihydro-benzimidazol-1-yl)-piperidin-1-ylmethyl]-2,3,8,9-tetrahydro-7H-1,4-dioxino[2,3-e]indol-8-one], the IC50 was determined as 4.08 nM.

The compound `O=C1Cc2c(ccc3c2O[C@@H](CN2CCC4(CC2)C(=O)NCN4c2ccccc2)CO3)N1` [Example 3, 2-(4-Oxo-1-phenyl-1,3,8-triaza-spiro[4,5]dec-8-ylmethyl)-2,3,8,9-tetrahydro-7H-1,4-dioxino-[2,3-e]indol-8-one] had an IC50 of 3.2 nM.

The same assay, now with this note: rat striatal brain tissue homogenate, 3H-quinpirole; read-out: D2 Receptor Affinity (IC50 (nM)).
As for `O=C1Cc2c(ccc3c2O[C@@H](CN2CCN(c4cccc5[nH]ccc45)CC2)CO3)N1` [Example 6, 2-[4-(1H-Indol-4-yl)-piperazin-1-ylmethyl]-2,3,8,9-tetrahydro-7H-1.4-dioxino[2.3-e]indol-8-one], the IC50 is 4.06 nM.

In the case of `O=C1Cc2c(ccc3c2O[C@@H](CN2CCc4ccccc4C2)CO3)N1` [Example 1, 2-(3,4-Dihydro-1H-isoguinolin-2-ylmethyl)-2,3,8,9-tetrahydro-7H-1,4-dioxino[2,3-e]indol-8-one], the IC50 turned out to be 0.35 nM.

With `O=C1Cc2c(c(F)cc3c2O[C@@H](CN2CCc4ccccc4C2)CO3)N1` [Example 7, 2-(3,4-Dihydro-1H-isoguinolin-2-ylmethyl)-6-fluoro-2,3,8,9-tetrahydro-7H-1,4-dioxino[2,3-e]indol-8-one], the IC50 came to 0.23 nM.

Take `O=C1Cc2c(ccc3c2O[C@@H](CN2CCC(C(=O)c4ccc(F)cc4)CC2)CO3)N1` [Example 2, 2-(4-(4-Fluoro-benzoyl)-piperidin-1-ylmethyl]-2,3,8,9-tetrahydro-7H-1,4-dioxino[2,3-e]indol-8-one]: the IC50 stood at 0.73 nM.
